Measurements: patent US20060167098A1, “Method for the treatment of diseases linked to an accumulation of triglycerides and cholesterol” (Institut National De La Sante ET De LA Recherche Medicale …, priority 2003, published 2006)

Experiments:
Assay type in all cases: in vivo
[1] = Body fat mass by DEXA in Swiss mice fed with a western diet
Method: In our investigations, two kinds of diet were used: 1—a standard diet (A04 diet from UAR) containing 3% of lipids and bringing 2900 kcal per kg; 2—a western diet (from UAR too) containing 16% of lipids and bringing 4300 kcal per kg.
D,L-β-Aminoisobutyric acid (BAIBA) was purchased from Sigma-Aldrich. BAIBA has been administered in drinking water at the dose of 100 mg/kg/day or 500 mg/kg/day for 6 weeks, 2 months or 4 months according to the experiments.
The in vivo determination of body fat mass in anesthetized mice has been performed by “DEXA” (Dual Energy X-ray Absorptiometry) (Pietriobelli A., Formica C., Wang Z., Heymsfield S. B., 1996, Am. J. Physiol. 271 (Endocrinol. Metab. 34): E941-E951)). […] It is noteworthy that DEXA also gives for each investigated animal its lean mass that is the total amount of water and proteins (in grams) in the body (excluding the head). Therefore, for a given animal, DEXA allows the determination of the percentage of body fat which is its body fat mass divided by the sum of its body lean and fat masses (fat mass/(lean mass+fat mass)). The “DEXA” apparatus was a Piximus® from Lunar Corporation (Madison, Wis.). Mice were anesthetized thanks to a mixture of xylazine and ketamine. […]
In a third series of experiments, we sought to determine as to whether of 100 mg/kg/day of β-aminoisobutyric acid (BAIBA) would be able to decrease body fat mass in Swiss mice fed with a western diet (i.e. hypercaloric diet). For this purpose, young (4 weeks old at T0) Swiss mice were fed with a hypercaloric western diet (WD), with or without BAIBA in the drinking water (8 mice in each group). For comparison, the experiment included a group of mice (n=8) fed with a standard diet (SD). DEXA was performed one day before the beginning of the treatment (T0) and then two, four and six weeks after the initiation of the experience (T2, T4 and T6, respectively). This allowed us to determine for each animal the variation of body parameters (e.g. fat mass, body weight) for the different periods of the treatment (T0-T2, T2-T4, T4-T6 and T0-T6). For these four DEXA determinations (T0 to T6), mice were not fasted before measurements. In this experiment, BAIBA reduced the gain of body fat mass in Swiss mice fed with a western diet and this beneficial effect was observed from the fourth week of the BAIBA administration. This effect is illustrated in FIG. 3. […] Indeed, during the T0-T6 period control mice fed with the western diet (Controls-WD) gained 4.88±0.83 grams of body fat whereas mice fed with the same diet and receiving BAIBA (BAIBA-WD) gained 3.91±0.59 grams of body fat mass. For comparison, mice fed with the standard diet (Controls-SD) gained 3.18±0.34 grams of body fat during the entire period (T0-T6) of the experiment. • At the end of the treatment (T6), the body fat mass was 4.48±0.33, 6.21±0.85 and 5.25±0.60 grams, respectively for the Controls-SD, Controls-WD and BAIBA-WD groups of mice (15% decrease between Controls-WD and BAIBA-WD). The percentage of body fat ((fat mass)/(fat+lean mass)) was at this time 13.23±0.86, 17.96±2.04 et 15.76±1.53%, respectively in the Controls-SD, Controls-WD and BAIBA-WD groups.
Finally, we sought to determine on the very same animals as to whether fasting would be able to enhance the beneficial effect of BAIBA on body fat mass. Thus, after the fourth DEXA measurement (i.e. DEXA determination at T6), mice were allowed to recover from the anaesthesia for ca. 2 days and were then submitted to a 48-hour period of fast. A last DEXA measurement was then performed in fasted mice. […] Indeed, after the fasting period, body fat mass was 3.10±0.30, 5.40±0.75 et 4.79±0.56 grams, respectively in control mice fed the standard diet (Controls-SD), control mice fed with the western diet (Controls-WD), and mice fed with the western diet and receiving BAIBA (BAIBA-WD). […]

[2] = Plasma lipids in ob/ob mice, 6 weeks, 15 hours overnight fast; settings: 100 mg/kg/day 6 weeks, fasted 15 hours
Method: (§1) Plasma lipids (triglycerides, total cholesterol, phospholipids) were measured on an automatic analyser (Hitachi 717®). The commercial kits used to assess triglycerides, total cholesterol and phospholipids on this analyser were all from bioMérieux (references 61238, 61219 and 61491, respectively). Plasma non esterified fatty acids (NEFA) were assessed by using a commercial kit (Wako, reference 994-75409). Hepatic and plasma lipids were performed at the end of six weeks of treatment in animals that have been fasted for 48 hours. Triglycerides and HDL-cholesterol were also assessed after 2 months (in the fed state) or after 4 months of treatment (after an overnight fast).
Plasma HDL-cholesterol and alanine aminotransferase (ALT) were measured on an automatic analyser (Olympus AU400®) with commercial kits (Olympus Diagnostica GmbH, references OSR6187 and OSR6107, respectively).
In a second series of experiments, plasma lipids were assessed in ob/ob mice fed with a standard diet and receiving or not of 100 mg/kg/day of β-aminoisobutyric acid (BAIBA) in the drinking water during 6 weeks, but at the end of the experiment mice were fasted for only 15 hours (i.e. for an overnight fast). Samples of blood were then collected in controls mice (n=4) and in mice treated with BAIBA (n=5) for the assessment of plasma triglycerides, total cholesterol and HDL-cholesterol. In this experiment, BAIBA decreased plasma triglycerides and total cholesterol by 10 and 8%, respectively. Indeed, plasma triglycerides were 1.35±0.07 and 1.22±0.06 mmol/L, respectively in control and treated ob/ob mice, whereas plasma total cholesterol was 6.78±0.51 and 6.24±0.11 mmol/L, respectively in control and treated mice. […] Indeed, HDL-cholesterol was 4.73±0.31 and 4.92±0.24 mmol/L, respectively in control and treated mice.

[3] = Plasma lipids in very young ob/ob mice; settings: very young ob/ob mice (6 weeks at the beginning)
Method: as §1
Accordingly, plasma triglycerides were 1.35 and 1.39 mmol/L in ob/ob mice in the present study, whereas much higher levels (1.96 mmol/L) were found in Swiss mice fed with the western diet (see above). Thus, it remains possible that the beneficial effects of BAIBA on plasma lipids are more pronounced when lipid levels are above a certain threshold. In keeping with this notion, BAIBA reduced by 22% plasma triglycerides in mice fed with the western diet (FIG. 6).

SMILES: CC(CN)C(=O)O (racemic) [BAIBA, D,L-β-Aminoisobutyric acid]
- gain of body fat mass ([1]; 100 mg/kg/day, western diet, T0-T6): 3.91±0.59 grams
- reduction of the gain of body fat mass ([1]; 100 mg/kg/day, western diet, T0-T6, vs Controls-WD): 20%
- body fat lost ([1]; 100 mg/kg/day, western diet, T4-T6 period): 0.45±0.30 grams
- body weight ([1]; 100 mg/kg/day, western diet, after 6 weeks): 37.0±0.76 grams
- percentage of body fat ((fat mass)/(fat+lean mass)) ([1]; 100 mg/kg/day, western diet, at T6): 15.76±1.53%
- body fat mass ([1]; 100 mg/kg/day, western diet, at T6, fed): 5.25±0.60 grams
- body fat mass ([1]; western diet 6 weeks, after 48-hour fasting period): 4.79±0.56 grams
- decrease of the percentage of body fat ([1]; western diet 6 weeks, fasted state): 11%
- decrease of the percentage of body fat ([1]; western diet 6 weeks, fed state): 15%
- decrease of body fat mass between Controls-WD and BAIBA-WD ([1]; western diet, at T6): 15%
- body weight ([1]; western diet, at the end of the fasting period): 33.6±0.9 grams
- HDL-cholesterol [2]: 4.92 ± 0.24 mmol/L
- decrease of plasma total cholesterol [2]: 8%
- decrease of plasma triglycerides [2]: 10%
- plasma total cholesterol [2]: 6.24 ± 0.11 mmol/L
- plasma triglycerides [2]: 1.22 ± 0.06 mmol/L
- plasma phospholipids [3]: 4.35 ± 0.11 mmol/L
- plasma total cholesterol [3]: 4.96 ± 0.15 mmol/L
- plasma triglycerides [3]: 1.07 ± 0.03 mmol/L
- reduction of plasma phospholipids [3]: 4%
- reduction of total cholesterol [3]: 5%
